pIC50: −log10 of the molar value. Where a name gives a salt, the structure may show the parent alone. Read-outs that look alike come from different tables or passages of the source. Some results are limits rather than exact numbers.

From US20250129091A1, “THIENOPYRROLOTRIAZINE COMPOUNDS, THEIR PREPARATION AND THEIR THERAPEUTIC USE” (Sanofi, priority 2022, published 2025) come the findings set out here.

In one test the test system is NLRP3 inflammasome. In words: IL-1β secretion assay (LPS-primed, nigericin-activated THP-1 cells, MSD readout). Format: cell-based. The conditions noted are these: read-out: IL1b IC50. As to the method: Monocytic THP-1 cells (DSMZ) were maintained in RPMI media (RPMI 1640 Medium (1×) +10% FBS, Eurobio CVFSVFOO—OU). Cells were then plated at 16,000 cells per well in 96-well round bottom cell culture plates (TPP, ref 92097) and maintained with RPMI and 0.1% Bovine Serum Albumin solution. Activation of the NLRP3 inflammasome requires both an NF-kB-dependent priming step and the addition of a NLRP3 activator. The priming step was induced by LPS (10 ng/mL, Sigma, ref:L4391) for 3 h at 37° C., then compound, in a 1:3.10 serial dilution series in DMSO 1:100, and the activator nigericin (Sigma Aldrich, ref: SML1779) 10 μM (final concentration) were added to the cells and co-incubated for 2 h. 50 μL supernatant was removed, and IL-1β levels were monitored using an MSD assay (Electro Chemical Luminescence Immunoassay (ECLI) according to manufacturers' instructions.
(§1) IC50 values were calculated from the plot of percentage of inhibition versus the inhibitor concentration by a logistics fit according to: y=A2+(A1−A2)/(1+(x/IC50)^p) where y is the %-inhibition at the inhibitor concentration, x. A1 is the lowest inhibition value, i.e., 0%, and A2 the maximum inhibition value, i.e., 100%. The exponent, p, is the Hill coefficient. The curve fitting was conducted with an internally developed software.

The test system of another test is TNF-α secretion. In words: TNF-α secretion assay (PMA-differentiated THP-1 cells, LPS-triggered, MSD readout). Format: cell-based. Conditions: LPS 24 h; for inhibition at 3 µM / inhibition at 10 µM: Homo sapiens. As to the method:
Monocytic THP-1 cells (DSMZ) were maintained in RPMI media (RPMI 1640 Medium (1×) +10% FBS, biowest S181H). Cells were then differentiated at 160,000 cells per well in 96-well flat bottom cell culture plates with RPMI+0.1% Bovine Serum Albumin solution and 0.5 μM phorbol 12-myristate 13-acetate (PMA; Sigma, ref:P8139) overnight at 37° C. Experimental compounds were prepared and added as described above. TNF-α secretion was triggered by the addition of 0.5 μg/mL LPS (invivoGen, tlrl-3pelps) and cells were incubated for 24 h. 2.5 μL supernatant was removed, and TNF-α levels were monitored using an MSD assay (mesoscale, K15049) according to manufacturers' instructions.
as §1

Setting [1] is: Homo sapiens, THP-1, LPS-primed.

Turning to `CC(C)c1nn(CC(=O)N[C@@H]2CCCN(C)C2)c(=O)c2cc3ccsc3n12` [Example 1, (R)-2-(8-isopropyl-5-oxothieno[3′,2′:4,5]pyrrolo[1,2-d][1,2,4]triazin-6(5H)-yl)-N-(1-methylpiperidin-3-yl)acetamide], the pIC50 (usually −log10 of the IC50, conventionally taken in molar units) with NLRP3 inflammasome (setting [1]) is 6.18. Moreover, in the test with TNF-α secretion (compound at 3 μM), the inhibition (as a rule, the drop in the measured response relative to a control, in per cent) at 3 µM was -5.1%. Besides, the inhibition at 10 µM with TNF-α secretion (compound at 10 μM) was -17.7%.

With `CC(C)c1nn(CC(=O)Nc2cncs2)c(=O)c2cc3ccsc3n12` [Example 2, 2-(8-isopropyl-5-oxothieno[3′,2′:4,5]pyrrolo[1,2-d][1,2,4]triazin-6(5H)-yl)-N-(thiazol-5-yl) acetamide], the pIC50 in the test with NLRP3 inflammasome (LPS-primed) was 6.24. Also, in the test with TNF-α secretion (compound at 3 μM), the “TNF-a inhibition @ 3 μM” value is 3.3. Besides, the “TNF-a inhibition @ 10 μM” value in the test on TNF-α secretion (compound at 10 μM) is on record as −51.5.

Consider `CC(C)c1nn(CC(=O)N[C@@H]2CCCN(C[C@H](C)O)C2)c(=O)c2cc3ccsc3n12` [Example 3, N—((R)-1-((S)-2-hydroxypropyl)piperidin-3-yl)-2-(8-isopropyl-5-oxothieno[3′,2′:4,5]pyrrolo[1,2-d][1,2,4]triazin-6(5H)-yl)acetamide], for which the negative-log IC50 (pIC50) with NLRP3 inflammasome (setting [1]) was 6.47. Besides, the inhibition at 3 µM in the test with TNF-α secretion (compound at 3 μM) turned out to be 3.1%. Moreover, the inhibition at 10 µM in the test with TNF-α secretion (compound at 10 μM) was -8.2%.

Regarding `CC(C)c1nn(CC(=O)N[C@@H]2CCCN(C3CC3)C2)c(=O)c2cc3ccsc3n12` [Example 4, (R)—N-(1-cyclopropylpiperidin-3-yl)-2-(8-isopropyl-5-oxothieno[3′,2′:4,5]pyrrolo[1,2-d][1,2,4]triazin-6(5H)-yl)acetamide], the pIC50 in the test with NLRP3 inflammasome (setting [1]) was 7.27. For the same compound, in the test on TNF-α secretion (compound at 3 μM), the inhibition at 3 µM is 21.5%. Also, the inhibition at 10 µM with TNF-α secretion (compound at 10 μM) is 7.5%.

On to `CC(C)c1nn(CC(=O)N[C@@H]2CCCN(C)C2)c(=O)c2cc3cc(Cl)sc3n12` [Example 5, (R)-2-(2-chloro-8-isopropyl-5-oxothieno[3′,2′:4,5]pyrrolo[1,2-d][1,2,4]triazin-6(5H)-yl)-N-(1-methylpiperidin-3-yl)acetamide 2,2,2-trifluoroacetate], for which the pIC50 with NLRP3 inflammasome (setting [1]) is 5.91. In addition, the inhibition at 3 µM in the test with TNF-α secretion (compound at 3 μM) is -18.2%. In addition, the inhibition at 10 µM in the test with TNF-α secretion (compound at 10 μM) is -14.1%.

Take `CC(C)c1nn(CC(=O)N[C@@H]2CCCN(C)C2)c(=O)c2cc3cc(Br)sc3n12` [Example 8, (R)-2-(2-bromo-8-isopropyl-5-oxothieno[3′,2′:4,5]pyrrolo[1,2-d][1,2,4]triazin-6(5H)-yl)-N-(1-methylpiperidin-3-yl)acetamide]: in the test with NLRP3 inflammasome (setting [1]), the pIC50 was 6.10. Also, the inhibition at 3 µM with TNF-α secretion (compound at 3 μM) was -10%. Besides, in the test with TNF-α secretion (compound at 10 μM), the inhibition at 10 µM is -21.8%.

For the compound `O=C(Cn1nc(C2CC2)n2c(cc3cc(Cl)sc32)c1=O)N[C@@H]1CCCN(C2CC2)C1` [Example 13, (R)-2-(2-chloro-8-cyclopropyl-5-oxothieno[3′,2′:4,5]pyrrolo[1,2-d][1,2,4]triazin-6(5H)-yl)-N-(1-cyclopropylpiperidin-3-yl)acetamide], the negative-log IC50 (pIC50) in the test on NLRP3 inflammasome (setting [1]) was 6.77. Also, in the test with TNF-α secretion (compound at 3 μM), the inhibition at 3 µM was found to be 5.2%. For the same compound, the inhibition at 10 µM in the test on TNF-α secretion (compound at 10 μM) turned out to be 22.2%.

In the case of `CC(C)CN1CCC[C@@H](NC(=O)Cn2nc(C(C)C)n3c(cc4ccsc43)c2=O)C1` [Example 14, (R)—N-(1-isobutylpiperidin-3-yl)-2-(8-isopropyl-5-oxothieno[3′,2′:4,5]pyrrolo[1,2-d][1,2,4]triazin-6(5H)-yl)acetamide], in the test with NLRP3 inflammasome (setting [1]), the negative-log IC50 (pIC50) was 6.63. Besides, the inhibition at 3 µM with TNF-α secretion (compound at 3 μM) was -0.5%. Further, the inhibition at 10 µM with TNF-α secretion (compound at 10 μM) is -18.8%.

Take `CC(C)c1nn(CC(=O)N[C@@H]2CCCN(CC3CCCC3)C2)c(=O)c2cc3ccsc3n12` [Example 17, (R)—N-(1-(cyclopentylmethyl)piperidin-3-yl)-2-(8-isopropyl-5-oxothieno[3′,2′:4,5]pyrrolo [1,2-d][1,2,4]triazin-6(5H)-yl)acetamide]: in the test with NLRP3 inflammasome (setting [1]), the negative-log IC50 (pIC50) was 6.52. In addition, in the test on TNF-α secretion (compound at 3 μM), the inhibition at 3 µM turned out to be 11.2%. The inhibition at 10 µM with TNF-α secretion (compound at 10 μM) worked out at 31.4%.

Turning to `CC(C)c1nn(CC(=O)NC2CN(C)CC(F)(F)C2)c(=O)c2cc3ccsc3n12` (centres unmarked) [Example 35, N-(5,5-difluoro-1-methylpiperidin-3-yl)-2-(8-isopropyl-5-oxothieno[3′,2′:4,5]pyrrolo[1,2-d][1,2,4]triazin-6(5H)-yl)acetamide], in the test on TNF-α secretion (compound at 3 μM), the inhibition at 3 µM was determined as 23%. For the same compound, in the test on TNF-α secretion (compound at 10 μM), the inhibition at 10 µM is 5.7%.

`CC(=O)NCC12CC(NC(=O)Cn3nc(C(C)C)n4c(cc5ccsc54)c3=O)(C1)C2` [Example 74, N-[3-(acetamidomethyl)bicyclo[1.1.1]pentan-1-yl]-2-(8-isopropyl-5-oxothieno[3′,2′:4,5]pyrrolo[1,2-d][1,2,4]triazin-6(5H)-yl)acetamide]: the pIC50 in the test on NLRP3 inflammasome (setting [1]) was 6.46.

Turning to `CC(C)c1nn(CC(=O)N[C@@H]2CCCN(CC#N)C2)c(=O)c2cc3ccsc3n12` [Example 75, N-[(3R)-1-(cyanomethyl)piperidin-3-yl]-2-(8-isopropyl-5-oxothieno[3′,2′:4,5]pyrrolo[1,2-d][1,2,4]triazin-6(5H)-yl)acetamide], the pIC50 with NLRP3 inflammasome (setting [1]) is 6.80.

Consider `CC(C)c1nn(CC(=O)N[C@@H]2CCN(C)C2)c(=O)c2cc3ccsc3n12` [Example 76, N-[(3R)-1-methylpyrrolidin-3-yl]-2-(8-isopropyl-5-oxothieno[3′,2′:4,5]pyrrolo[1,2-d][1,2,4]triazin-6(5H)-yl)acetamide], for which the pIC50 with NLRP3 inflammasome (setting [1]) was 6.01.

Take `CC(C)c1nn(CC(=O)N[C@@H]2CCCN(CCC#N)C2)c(=O)c2cc3ccsc3n12` [Example 77, N-[(3R)-1-(2-cyanoethyl)piperidin-3-yl]-2-(8-isopropyl-5-oxothieno[3′,2′:4,5]pyrrolo[1,2-d][1,2,4]triazin-6(5H)-yl)acetamide]: in the test with NLRP3 inflammasome (setting [1]), the pIC50 is 7.11.

Take `CC(C)c1nn(CC(=O)N[C@@H]2CCCN(C[C@@H](C)O)C2)c(=O)c2cc3ccsc3n12` [Example 78, N-[(3R)-1-[(2R)-2-hydroxypropyl]piperidin-3-yl]-2-(8-isopropyl-5-oxothieno[3′,2′:4,5]pyrrolo [1,2-d][1,2,4]triazin-6(5H)-yl)acetamide]: the pIC50 with NLRP3 inflammasome (setting [1]) is 6.49.

With `CC(C)c1nn(CC(=O)N[C@@H]2CCCN(C(C)(C)CO)C2)c(=O)c2cc3ccsc3n12` [Example 79, N-[(3R)-1-(1-hydroxy-2-methylpropan-2-yl)piperidin-3-yl]-2-(8-isopropyl-5-oxothieno [3′,2′:4,5]pyrrolo[1,2-d][1,2,4]triazin-6(5H)-yl)acetamide], the pIC50 in the test with NLRP3 inflammasome (setting [1]) is 7.54.

Regarding `CCOC(=O)C(C)(C)N1CCCC(NC(=O)Cn2nc(C(C)C)n3c(cc4ccsc43)c2=O)C1` (centres unmarked) [Example 80, ethyl 2-methyl-2-[3-[[2-(8-isopropyl-5-oxothieno[3′,2′:4,5]pyrrolo[1,2-d][1,2,4]triazin-6(5H)-yl)acetyl]amino]piperidin-1-yl]propanoate], in the test on NLRP3 inflammasome (setting [1]), the pIC50 is 6.49.

With `CC(C)c1nn(CC(=O)NC2CC3(C2)CN(C)C3)c(=O)c2cc3ccsc3n12` [Example 83, N-(2-methyl-2-azaspiro[3.3]heptan-6-yl)-2-(8-isopropyl-5-oxothieno[3′,2′:4,5]pyrrolo[1,2-d][1,2,4]triazin-6(5H)-yl)acetamide], in the test on NLRP3 inflammasome (setting [1]), the negative logarithm of the IC50 (pIC50) is 5.73.

Consider `CC(C)c1nn(CC(=O)Nc2cncnc2)c(=O)c2cc3ccsc3n12` [Example 84, 2-(8-isopropyl-5-oxothieno[3′,2′:4,5]pyrrolo[1,2-d][1,2,4]triazin-6(5H)-yl)-N-pyrimidin-5-ylacetamide], for which the negative-log IC50 (pIC50) in the test on NLRP3 inflammasome (setting [1]) was 5.23.

`CC(C)c1nn(CC(=O)NC2CCNC(=O)C2)c(=O)c2cc3ccsc3n12` (centres unmarked) [Example 85, 2-(12-isopropyl-9-oxo-3-thia-1,10,11-triazatricyclo[6.4.0.02,6]dodeca-2(6),4,7,11-tetraen-10-yl)-N-(2-oxo-4-piperidyl)acetamide]: the negative logarithm of the IC50 (pIC50) in the test on NLRP3 inflammasome (setting [1]) was less than 5.00.

As to `CC(C)c1nn(CC(=O)NC2CCN(C3CC3)C2)c(=O)c2cc3ccsc3n12` (centres unmarked) [Example 86, N-(1-cyclopropylpyrrolidin-3-yl)-2-(12-isopropyl-9-oxo-3-thia-1,10,11-triazatricyclo [6.4.0.02,6]dodeca-2(6),4,7,11-tetraen-10-yl)acetamide], the negative logarithm of the IC50 (pIC50) in the test on NLRP3 inflammasome (setting [1]) is less than 5.00.

On to `CC(C)c1nn(CC(=O)NC2C[C@@H]3CN[C@H]2C3)c(=O)c2cc3ccsc3n12` (stereo partly drawn) [Example 88, N-[(1S,4R)-2-azabicyclo[2.2.1]heptan-6-yl]-2-(12-isopropyl-9-oxo-3-thia-1,10,11-triazatricyclo[6.4.0.02,6]dodeca-2(6),4,7,11-tetraen-10-yl)acetamidehydrochloride], for which the pIC50 in the test with NLRP3 inflammasome (setting [1]) is less than 5.00.
